Data on six compounds can be found in US10682317B2 (ZOGENIX INTERNATIONAL LIMITED, priority 2017, dated 2020).

The structures appear in SMILES notation. ≈ marks a conversion by molar mass, not a printed value. Where “and” joins values, the source holds several entries; their conditions need not be identical. Identical values can stand only once. Counter-ions that a name gives are not always drawn. Like-named read-outs stand apart in the source and are kept apart here.

The solubility is the dissolved amount per volume that the medium holds.

The test system of data set [1] is food intake / carbohydrate craving. As to conditions: cited from earlier work.
Data set [2] in a line: Paraben preservative degradation (hydrolysis). The class given is physicochemical. The note with it: pH 6. An excerpt: The pH of the drug product formulation was optimized to minimize the preservative degradation.
Like methylparaben, ethylparaben degrades in solution by hydrolysis. The rate increases at higher pH. The pH of the drug product formulation was optimized to minimize the preservative degradation while maintaining adequate solubility, and no significant increase in the preservatives degradation product has been observed in long-term stability studies.

For data set [3], the target named is T1, vesicular glutamate transporter, VGLUT2 (Homo sapiens, UniProt Q9P2U8).
T1 sequence (Q9P2U8 1-582): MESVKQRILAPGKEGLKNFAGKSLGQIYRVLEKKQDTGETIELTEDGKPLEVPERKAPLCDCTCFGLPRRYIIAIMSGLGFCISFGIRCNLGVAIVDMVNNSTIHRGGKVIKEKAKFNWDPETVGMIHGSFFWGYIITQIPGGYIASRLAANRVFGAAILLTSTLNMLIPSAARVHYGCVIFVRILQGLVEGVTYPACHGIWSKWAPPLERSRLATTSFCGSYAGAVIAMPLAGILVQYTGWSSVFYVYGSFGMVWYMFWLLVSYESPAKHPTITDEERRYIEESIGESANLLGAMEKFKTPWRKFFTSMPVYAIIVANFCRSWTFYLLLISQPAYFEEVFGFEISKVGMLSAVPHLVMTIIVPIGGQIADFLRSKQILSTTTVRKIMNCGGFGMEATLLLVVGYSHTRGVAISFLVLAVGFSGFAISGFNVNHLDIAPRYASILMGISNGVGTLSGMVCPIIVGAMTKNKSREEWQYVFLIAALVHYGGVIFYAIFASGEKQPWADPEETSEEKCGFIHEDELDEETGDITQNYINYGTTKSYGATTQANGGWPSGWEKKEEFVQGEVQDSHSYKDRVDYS
The note with it: concentrations expected during the ketogenic diet; cited from earlier work.

The conditions of data set [4]: cited from earlier work.
The nature of data set [5]: Particle size of drug substance batches. The class given is physicochemical. The source says:
Fenfluramine hydrochloride drug substance is non-micronized. The range of particle size parameters obtained from five GMP batches (two clinical batches manufactured by Onyx, and three registration batches manufactured by Aptuit) is listed in Table 1.

The conditions of data set [6]: pH 6.8.
Data set [7] can be described thus: Aqueous solubility of the drug substance. The note with it: aqueous solution.
A short description of data set [8]: Solid state stability and polymorph screening. The class given is physicochemical.
A short description of data set [9]: Buffer system selection: stability of pH prototypes. The class given is physicochemical. As to conditions: pH range of 4.5 to 6.5, citrate or citrate-phosphate buffer prototypes. As to the method:
A pH range of 4.5 to 6.5 was investigated during formulation development studies. Various prototypes were prepared with either citrate buffer or citrate-phosphate buffer, depending on target pH. […] Based on initial stability data, a target pH of 5.0 (range: 4.5-5.5) was selected because it minimized the preservatives degradation at long-term and accelerated stability conditions without causing precipitation in product stored at 2-8° C. The buffer components in the drug product formulation are tripotassium citrate and citric acid. Potassium citrate was used instead of sodium citrate to avoid common ion effect with the paraben sodium salts, which may have contributed to precipitation in prototypes containing sodium citrate.

Data set [10] has as its system seizures. The note with it: cited from earlier work.
In data set [11] the test system is food intake / carbohydrate craving. The data set can be described thus: Anorectic effect, food intake and carbohydrate craving. The class given is in vivo, human. As to conditions: surprisingly low dose, compared to 60-120 mg/day for obesity. As to the method: (§1) The overall anorectic effect of dexfenfluramine is greater than that of […] in experimental animals (Garratini et al. 1988) and humans (Goodall et al. 1992). […] Put differently, a preferred dose is not more than about 30 mg/day, and less than about 1 to about 0.01 mg/kg/day.

Data set [12] has as its system cardiac fibrosis and pulmonary hypertension. As to conditions: marketed use for obesity; cited from earlier work.
Data set [13] concerns seizures. The data set can be described thus: Treatment of seizures in epilepsy patients. The class given is in vivo, human.
Text: Clemens, in Epilepsy Research (1988) 2:340-343 reported a study on a child suffering pattern sensitivity-induced seizures that were resistant to anticonvulsive treatment.
This is confirmed, for example, in the article by Ceulemans et al., Epilepsia (2012) 53(7):1131-1139, the contents of which are incorporated herein.
as §1

The mark [14] stands for this setting: clinical and registration batches 1-5, hydrochloride.

`CCN[C@@H](C)Cc1cccc(C(F)(F)F)c1` (racemic) [Dexfenfluramine]: the carbohydrate craving entry in [1] (adults, 30 mg/day) was “reduction in carbohydrate craving”. Also, the “suppression of food intake” value in data set [1] (dose of 30 mg) is on record as “suppressed food intake to the same degree as fenfluramine 60 mg”. Besides, the “anorectic potency vs racemic mixture fenfluramine” value in data set [1] (group of 16 human subjects) was “twice the anorectic potency”.

Consider `COC(=O)c1ccc(O)cc1.[Na]` [Methylparaben sodium, sodium methyl p-hydroxybenzoate], for which the stability against hydrolysis entry in data set [2] was “acceptable stability below pH 6”.

In the case of `CC(=O)CC(=O)O` [acetoacetate], the “glutamate transport by VGLUT2” value in data set [3] is “inhibited”.

`CCOC(=O)c1ccc(O)cc1` [ethylparaben, ethyl 4-hydroxybenzoic acid]: the “solubility of the free acid in water” value is given as 0.07% in data set [4] (20° C.) and 0.08% in data set [4] (25° C.). Besides, in data set [4], the solubility was 0.8 mg/mL (≈ 4.81 mM).

On to `CCNC(C)Cc1cccc(C(F)(F)F)c1` (stereo not shown) [fenfluramine hydrochloride], for which the D50 in data set [5] (setting [14]) was 6.99 μm and 6.79 μm and 8.92 μm and 8.20 μm and 6.16 μm. Also, in data set [5] (setting [14]), the D90 is 23.01 μm and 26.25 μm and 32.08 μm and 27.04 μm and 18.96 μm. Moreover, the “median particle size (D50)” value in data set [5] (experimental batch) came out at 60 μm. Moreover, in data set [5] (experimental batch), the “ninetieth percentile (D90)” value is given as 250 μm. Further, in [5] (experimental batch vs micronized portions of the same batch), the “time needed for complete dissolution in the formulation vehicle” value is on record as “no difference was observed in the time needed for complete dissolution”. Besides, the “time for which the solution is stable” value in [6] is reported as “at least 6 months”. Also, the solubility in data set [7] (25 °C, pH 1.7, simulated gastric fluid) was roughly 25 mg/mL; in [7] (25 °C, pH 6.7, aqueous buffer), greater than 50 mg/mL; in data set [7] (37 °C, aqueous buffer), 54 to 96 mg/mL. The polymorphs observed entry in data set [8] (polymorph screening study, accelerated and long-term stability studies) was “no other polymorphs have been observed”. In addition, the solid state stability entry in data set [8] (solid state) is “chemically and physically stable in the solid state”. In addition, the “stability over pH range” value in data set [9] was “stable over the entire range of pH”.

On to `CCNC(C)Cc1cccc(C(F)(F)F)c1` (stereo not shown) [fenfluramine, 3-trifluoromethyl-N-ethylamphetamine], for which the effect on seizures result was “successfully terminated these self-induced seizures” in the data set on seizures [10] (child with pattern sensitivity-induced seizures resistant to anticonvulsive treatment) and “reduce or eliminate seizures” in the data set with seizures [13] (patients with Dravet syndrome, Lennox-Gastaut syndrome, or Doose syndrome). Also, in the data set on seizures [10] (children with refractory epilepsy, 0.5 to 1 mg/kg/day), the number of seizures result is “reduction in the number of seizures”. Further, the response of seizures entry in the data set with seizures [10] (four cases of self-induced photosensitive seizures) is recorded as “responded to treatment”. For the same compound, in the data set with seizures [10] (patients with intractable epilepsy), the therapeutic benefit result is listed as “appeared to be of therapeutic benefit”. Moreover, in [11], the “appetite and craving for carbohydrates” value is “effective in reducing appetite and craving for carbohydrates”. Also, the “adverse effects associated with use” value in data set [12] is “associated with the onset of cardiac fibrosis and pulmonary hypertension”. Also, the “efficacy of low doses on seizures” value in the data set with seizures [13] (surprisingly low doses, Dravet, Lennox-Gastaut or Doose syndrome patients) is reported as “efficacious”.
